Laboratory results as given in patent publication US20090209644A1, “LIPOTOXICITY RELIEVING AGENT” (priority 2005, published 2009).
Where two headings read alike, the source gives them in different places.

What was measured:
[1] = test system: Min6 cells; experiment: Restoration of impaired insulin secretion in Min6 cells after palmitic acid load (Experimental Example 2); format: cell-based, mouse; details: Min6, 0.4 mM palmitic acid load 48 h, 20 mM glucose; for insulin secretion, % of normal group: normal group = 100%
Description: (1-1) Min6 cells suspended in DMEM medium (manufactured by Gibco) were seeded in a 24 well plate at 1.5×10^5 cells per well, and the cells were incubated overnight in 5% CO2 at 37° C. (1-2) To each well, palmitic acid was added to a concentration of 0.4 mM, and BSA not containing the fatty acid was added to a concentration of 0.5% (v/v), and the incubation was continued in 5% CO2 at 37° C. for 48 hours. (1-3) The cells were washed twice with PBS(−), and the incubation was continued in 5% CO2 at 37° C. for 48 hours in DMEM medium (manufactured by Sigma) after adding palmitic acid (palmitic acid group), oleic acid (oleic acid group), EPA (EPA group), or DHA (DHA group) at 50 μM, or in the absence of the fatty acid (control group). In the meanwhile, the Min6 cells cultured in the above (1-1) were incubated in the DMEM medium (manufactured by Sigma) for 48 hours as in the case of the above (1-2) but without adding the 0.4 mM palmitic acid (normal group), and these cells were washed twice with the PBS(−) and incubated in the DMEM medium (manufactured by Sigma) in the absence of the fatty acid in 5% CO2 at 37° C. for another 48 hours as in the case of the control group of the above (1-3) to prepare the sample (normal group). The stimulation with glucose was conducted by repeating the procedure of Experimental Example 1(2), and the sample that had been stimulated with 2.8 mM glucose and the sample that had been stimulated with 20 mM glucose were collected and the amount of insulin per mg of the protein were measured.

[2] = test system: Langerhans' islet; experiment: Combined use of EPA and tolbutamide on palmitic acid-suppressed insulin secretion of isolated Langerhans' islet (Experimental Example 4); format: cell-based, mice (C57BL/6J); details: mouse islets; for insulin secretion, % of control group / activity at 400 µM / activity at 5000 µM: control = 100%; for activity at 400 µM / activity at 5000 µM: Mus musculus, read-out: insulin secretion, % of control group
Description: Langerhans' islet was isolated from the pancreas of male mice (C57BL/6J, 8 week old, purchased from Clea Japan, Inc.) and cultured according to the procedure of Experimental Example 3, and effect of 50 μM EPA alone (the group of palmitic acid plus EPA), 5 mM tolbutamide alone (the group of palmitic acid plus tolbutamide), and combined use of 50M EPA and 5 mM tolbutamide (the group of palmitic acid plus the combination) on the suppression of the insulin secretion stimulated with 20 mM glucose and the insulin secretion stimulated with 30 mM KCl induced by 0.4 mM palmitic acid were measured according to the procedure of Experimental Example 1. Amount of insulin per 1 ng DNA of the Langerhans' islet was evaluated according to the procedure of Experimental Example 3.

[3] = test system: Min6 cells from mouse pancreatic β-cell; experiment: Inhibition (prophylaxis) of lipotoxicity-impaired glucose-stimulated insulin secretion in Min6 cells (Experimental Example 1); format: cell-based; details: for insulin secretion (amount of insulin per mg of the protein): stimulated with 20 mM glucose
Description: Min6 cells from mouse pancreatic β-cell (provided by Dr. Miyazaki of Osaka University) suspended in DMEM medium (manufactured by GIBCO, purchased from Iwai Chemicals Company) were seeded in a 24 well plate at 1.5×10^5 cells per well, and the cells were incubated in 5% CO2 at 37° C. for 24 hours. The medium was replaced with DMEM medium (manufactured by Sigma) containing 0.5% (v/v) fatty acid free bovine serum albumin (hereinafter abbreviated as BSA) and 5.5 mM glucose, and incubated in 5% CO2 at 37° C. for 48 hours with or without (control group) one of the following fatty acids, 0.4 mM palmitic acid (palmitic acid group), 50 μM EPA (EPA group), or 0.4 mM palmitic acid and 50 μM EPA (the group of palmitic acid plus EPA). The supernatant was removed from the cell culture of (1), and the cells were washed twice with phosphate buffered saline (hereinafter abbreviated as PBS(−)), and after adding 500 μL of Krebs-Ringer-Bicarbonate-Hepes buffer (hereinafter abbreviated as KRBH buffer) containing 0.5% (v/v) fatty acid free BSA and 2.8 mM glucose, the incubated was continued in 5% CO2 at 37° C. for 1 hour. The supernatant was removed from the cell culture, and after adding 500 μL of KRBH buffer containing 0.5% (v/v) BSA and 2.8 mM glucose, the incubation was continued in 5% CO2 at 37° C. for 1 hour, and the supernatant was collected as the sample which had been stimulated with 2.8 mM glucose. Next, the cells were washed twice with PBS(−), and incubated in KRBH buffer containing 0.5% (v/v) BSA and 20 mM glucose in 5% CO2 at 37° C. for 1 hour. The supernatant was collected as the sample which had been stimulated with 20 mM glucose. The samples collected were evaluated for their insulin concentration by Levis insulin assay kit (manufactured by Shibayagi and purchased from Nakayama Co., Ltd.) and for their protein concentration by the method of […] (BCA kit), and determine the amount of insulin per mg of the protein.

[4] = test system: Langerhans' islet (pancreatic β-cell); experiment: Glucose-stimulated insulin secretion of Langerhans' islet isolated from fed mice (Experimental Example 3); format: in vivo, mice (C57BL/6J); details: 20 mM glucose; for insulin secretion, % of control group: control = 100%
Excerpt: Male mice (C57BL/6J, 8 week old, purchased from Clea Japan, Inc.) were fed on fish meal free F1 (manufactured by Funabashi Farms Co., Ltd.) for 1 week, and the mice were divided into 4 groups each including 9 to 10 mice. The 4 groups of mice were freely fed for 28 days on (1) fish meal free F1 (control group), (2) fish meal free F1 containing 20% by weight of tripalmitic acid added (palmitic acid group), (3) F1 feed not containing any fish meal having 20% by weight of tripalmitic acid and 5% by weight of EPA-E added (the group of palmitic acid plus EPA), and (4) F1 feed not containing any fish meal having 5% by weight of EPA-E added (EPA group). Before the start of the experiment, on 14th day, and on the final day, blood was taken from orbital venous plexus after fasting for 16 hours. The serum was separated, and blood free fatty acid was enzymatically measured by using NEFA Test Wako (Wako Pure Chemical Industries, Ltd.). Langerhans' islet was isolated by way of density gradient method from the pancreas that had been treated with collagenase, and cultivated in 10% (v/v) fetal bovine serum (purchased from Iwai Chemicals Company) and RPM 11640 medium) supplemented with 1% by weight of penicillin streptomycin (manufactured by Sigma) in 5% CO2 at 37° C. for 2 hours. The glucose-stimulated insulin secretion was then evaluated according to the procedure described in Experimental Example 1-(2). The Langerhans' islet was washed with PBS(−) and vigorously shaked in […] of TNE buffer (0.1M Tris-HCl, pH 7.4, 2M NaCl, 10 mM EDTA) to prepare the cell lysate. 20 μL of this cell lysate was added to 100 μL of chromogenic solution (1.2 μL of Hoechst 33258 (manufactured by Wako Pure Chemical Industries, Ltd.) added to 1 mL of TNE buffer), and the reaction was allowed to proceed at room temperature for at least 8 hours, and the measurement was conducted by using an excitation wavelength of 350 nm and a measurement wavelength of 450 nm. Similar evaluation was conducted by using bovine thymus DNA (manufactured by Sigma) to prepare a calibration curve to thereby enable determination of the DNA amount. Amount of insulin per μg of the DNA of the Langerhans' islet was measured.

[5] = Blood (serum) free fatty acid in palmitic acid fed mice (Experimental Example 3); format: in vivo, mice (C57BL/6J); details: feed with 20% by weight tripalmitic acid, 28 days, vs control group
Excerpt: Male mice (C57BL/6J, 8 week old, purchased from Clea Japan, Inc.) were fed on fish meal free F1 (manufactured by Funabashi Farms Co., Ltd.) for 1 week, and the mice were divided into 4 groups each including 9 to 10 mice. The 4 groups of mice were freely fed for 28 days on (1) fish meal free F1 (control group), (2) fish meal free F1 containing 20% by weight of tripalmitic acid added (palmitic acid group), (3) F1 feed not containing any fish meal having 20% by weight of tripalmitic acid and 5% by weight of EPA-E added (the group of palmitic acid plus EPA), and (4) F1 feed not containing any fish meal having 5% by weight of EPA-E added (EPA group). Before the start of the experiment, on 14th day, and on the final day, blood was taken from orbital venous plexus after fasting for 16 hours. The serum was separated, and blood free fatty acid was enzymatically measured by using NEFA Test Wako (Wako Pure Chemical Industries, Ltd.). […] The glucose-stimulated insulin secretion was then evaluated according to the procedure described in Experimental Example 1-(2).

[6] = 0.4 mM palmitic acid plus 50 μM EPA, 5 mM tolbutamide or both, 20 mM glucose
[7] = 0.4 mM palmitic acid plus 50 μM EPA, 5 mM tolbutamide or both, 30 mM KCl
[8] = 0.4 mM palmitic acid plus 50 μM EPA, 5 mM tolbutamide or both, stimulated with 20 mM glucose
[9] = 0.4 mM palmitic acid plus 50 μM EPA, 5 mM tolbutamide or both, stimulated with 30 mM KCl
[10] = islets of mice fed 5% EPA-E alone 28 days
[11] = islets of mice fed 20% tripalmitic acid and 5% EPA-E 28 days
[12] = islets of mice fed 20% tripalmitic acid 28 days
[13] = then 48 h without fatty acid (control group)

CC/C=C\C/C=C\C/C=C\C/C=C\C/C=C\C/C=C\CCC(=O)O [DHA, docosahexaenoic acid]
insulin secretion (amount of insulin per mg of the protein) ([1]; then 50 μM fatty acid 48 h): 0.004073 mg
insulin secretion, % of normal group ([1]; then 50 μM fatty acid 48 h): 81.4%

CC/C=C\C/C=C\C/C=C\C/C=C\C/C=C\CCCC(=O)O [EPA, eicosapentaenoic acid]
insulin secretion, % of control group [2, 6]: 80.0%
insulin secretion, % of control group [2, 7]: 72.4%
insulin secretion (amount of insulin per 1 ng DNA of the Langerhans' islet) [2, 8]: 823 pg
insulin secretion (amount of insulin per 1 ng DNA of the Langerhans' islet) [2, 9]: 422 pg
insulin secretion (amount of insulin per mg of the protein) ([3]; Min6, 50 μM EPA alone 48 h): 0.003664 mg
insulin secretion, % of control group ([3]; Min6, 0.4 mM palmitic acid and 50 μM EPA 48 h, 20 mM glucose, control = 100%): 54.6%
insulin secretion (amount of insulin per mg of the protein) ([3]; Min6, 0.4 mM palmitic acid and 50 μM EPA 48 h): 0.002096 mg
activity at 50 µM ([3]; Mus musculus, Min6, 50 μM EPA alone 48 h, 20 mM glucose, control = 100%, read-out: insulin secretion, % of control group): 95.5%
insulin secretion (amount of insulin per μg of the DNA of the Langerhans' islet) [4, 10]: 0.0089 µg
insulin secretion, % of control group [4, 10]: 121%
insulin secretion (amount of insulin per μg of the DNA of the Langerhans' islet) [4, 11]: 0.0082 µg
insulin secretion, % of control group [4, 11]: 111%
insulin secretion (amount of insulin per mg of the protein) ([1]; then 50 μM fatty acid 48 h): 0.004278 mg
insulin secretion, % of normal group ([1]; then 50 μM fatty acid 48 h): 85.4%

CCCCCCCC/C=C\CCCCCCCC(=O)O [oleic acid]
insulin secretion (amount of insulin per mg of the protein) ([1]; then 50 μM fatty acid 48 h): 0.000659 mg
insulin secretion, % of normal group ([1]; then 50 μM fatty acid 48 h): 13.2%

CCCCCCCCCCCCCCCC(=O)O [palmitic acid]
activity at 400 µM ([2]; 0.4 mM palmitic acid alone, 20 mM glucose): 55.6%
activity at 400 µM ([2]; 0.4 mM palmitic acid alone, 30 mM KCl): 39.3%
insulin secretion (amount of insulin per 1 ng DNA of the Langerhans' islet) ([2]; 0.4 mM palmitic acid alone, stimulated with 20 mM glucose): 572 pg
insulin secretion (amount of insulin per 1 ng DNA of the Langerhans' islet) ([2]; 0.4 mM palmitic acid alone, stimulated with 30 mM KCl): 229 pg
insulin secretion (amount of insulin per mg of the protein) ([3]; Min6, 0.4 mM palmitic acid alone 48 h): 0.00091 mg
activity at 400 µM ([3]; Mus musculus, Min6, 0.4 mM palmitic acid alone 48 h, 20 mM glucose, control = 100%, read-out: insulin secretion, % of control group): 23.7%
serum free fatty acid concentration [5]: increased more significantly with time
insulin secretion (amount of insulin per μg of the DNA of the Langerhans' islet) [4, 12]: 0.0046 µg
insulin secretion, % of control group [4, 12]: 63%
insulin secretion (amount of insulin per mg of the protein) ([1]; then 50 μM fatty acid 48 h): 0.000742 mg
insulin secretion, % of normal group ([1]; then 50 μM fatty acid 48 h): 14.8%
insulin secretion (amount of insulin per mg of the protein) [1, 13]: 0.002481 mg
insulin secretion, % of normal group [1, 13]: 49.6%

CCCCNC(=O)NS(=O)(=O)c1ccc(C)cc1 [tolbutamide]
activity at 5000 µM [2, 6]: 65.4%
activity at 5000 µM [2, 7]: 54.2%
insulin secretion (amount of insulin per 1 ng DNA of the Langerhans' islet) [2, 8]: 673 pg
insulin secretion (amount of insulin per 1 ng DNA of the Langerhans' islet) [2, 9]: 316 pg
